Laboratory results: ChEMBL document CHEMBL1777766, “Design, synthesis and in vitro antibacterial activity of 7-(4-alkoxyimino-3-aminomethylpiperidin-1-yl)fluoroquinolone derivatives” (Bioorg Med Chem Lett, 2011)
In brackets after ≈: the same amount, converted by molar mass.

Columns and labels:
Staphylococcus aureus [1] = assay: Antibacterial activity against methicillin-sensitive Staphylococcus aureus 08-49; assay type: functional
Staphylococcus aureus [2] = assay: Antibacterial activity against Staphylococcus aureus ATCC 13709; assay type: functional
Staphylococcus aureus [3] = assay: Antibacterial activity against methicillin-resistant Staphylococcus aureus 08-52; assay type: functional
[4] = test system: Staphylococcus epidermidis; assay: Antibacterial activity against Staphylococcus epidermidis ATCC 12228; assay type: functional
[5] = test system: Staphylococcus epidermidis; assay: Antibacterial activity against methicillin-sensitive Staphylococcus epidermidis 08-17; assay type: functional
[6] = test system: Staphylococcus epidermidis; assay: Antibacterial activity against methicillin-resistant Staphylococcus epidermidis 08-18; assay type: functional
Streptococcus pneumoniae [7] = assay: Antibacterial activity against Streptococcus pneumoniae ATCC 6301; assay type: functional
Streptococcus pneumoniae [8] = assay: Antibacterial activity against penicillin-resistant Streptococcus pneumoniae 08-2; assay type: functional
Enterococcus faecalis [9] = assay: Antibacterial activity against Enterococcus faecalis ATCC 51299; assay type: functional
Enterococcus faecalis [10] = assay: Antibacterial activity against vancomycin-resistant Enterococcus faecalis EFL1004; assay type: functional
Streptococcus pyogenes = assay: Antibacterial activity against Streptococcus pyogenes 556; assay type: functional
Escherichia coli [11] = assay: Antibacterial activity against Escherichia coli ATCC 25922; assay type: functional
Escherichia coli [12] = assay: Antibacterial activity against Extended spectrum beta-lactamase producing Escherichia coli 08-5; assay type: functional
Klebsiella pneumoniae = assay: Antibacterial activity against Klebsiella pneumoniae ATCC 700603; assay type: functional
Pseudomonas aeruginosa = assay: Antibacterial activity against Pseudomonas aeruginosa 17; assay type: functional
Shigella sonnei = assay: Antibacterial activity against Shigella sonnei 51592; assay type: functional
Salmonella typhi = assay: Antibacterial activity against Bacillus typhi 50035; assay type: functional, Salmonella enterica subsp. enterica serovar Typhi; details: Salmonella enterica
Enterobacter cloacae = assay: Antibacterial activity against Enterobacter cloacae 45301; assay type: functional
[13] = test system: Acinetobacter calcoaceticus; assay: Antibacterial activity against Acinetobacter calcoaceticus 25001; assay type: functional
Klebsiella aerogenes = assay: Antibacterial activity against Enterobacter aerogenes 45102; assay type: functional
Serratia marcescens = assay: Antibacterial activity against Serratia marcescens 41002; assay type: functional
Morganella morganii = assay: Antibacterial activity against Morganella morganii 49086; assay type: functional
Providencia rettgeri = assay: Antibacterial activity against Proteus rettgeri 49006; assay type: functional
Proteus vulgaris = assay: Antibacterial activity against Proteus vulgaris 56; assay type: functional
[14] = Cytotoxicity against african green monkey Vero cells after 24 hrs; assay type: cell-based; details: chlorocebus sabaeus

| Structure (SMILES) | MIC (Staphylococcus aureus [1]) [µg/mL] | MIC (Staphylococcus aureus [2]) [µg/mL] | MIC (Staphylococcus aureus [3]) [µg/mL] | MIC [4] [µg/mL] | MIC [5] [µg/mL] | MIC [6] [µg/mL] | MIC (Enterococcus faecalis [9]) [µg/mL] | MIC (Enterococcus faecalis [10]) [µg/mL] | MIC (Streptococcus pyogenes) [µg/mL] | MIC (Escherichia coli [11]) [µg/mL] | MIC (Escherichia coli [12]) [µg/mL] | MIC (Pseudomonas aeruginosa) [µg/mL] | MIC (Shigella sonnei) [µg/mL] | MIC (Salmonella typhi) [µg/mL] | MIC [13] [µg/mL] | MIC (Klebsiella aerogenes) [µg/mL] | MIC (Serratia marcescens) [µg/mL] | MIC (Morganella morganii) [µg/mL] | MIC (Providencia rettgeri) [µg/mL] | MIC (Proteus vulgaris) [µg/mL] | also measured |
| --- | --- | --- | --- | --- | --- | --- | --- | --- | --- | --- | --- | --- | --- | --- | --- | --- | --- | --- | --- | --- | --- |
| CO/N=C1\CCN(c2c(F)cc3c(=O)c(C(=O)O)cn(C4CC4)c3c2F)CC1CN (racemic) | 0.5 (≈ 1.19 µM) | 0.5 (≈ 1.19 µM) | 0.5 (≈ 1.19 µM) | 1 (≈ 2.38 µM) | 1 (≈ 2.38 µM) | 4 (≈ 9.51 µM) | 4 (≈ 9.51 µM) | 4 (≈ 9.51 µM) | 16 (≈ 38.1 µM) | 1 (≈ 2.38 µM) | > 128 | 8 (≈ 19 µM) | 1 (≈ 2.38 µM) | 1 (≈ 2.38 µM) | 2 (≈ 4.76 µM) | 1 (≈ 2.38 µM) | 4 (≈ 9.51 µM) | 1 (≈ 2.38 µM) | 8 (≈ 19 µM) | 4 (≈ 9.51 µM) | MIC (Streptococcus pneumoniae [7]): 8 µg/mL (≈ 19 µM); MIC (Streptococcus pneumoniae [8]): 8 µg/mL (≈ 19 µM); MIC (Klebsiella pneumoniae): 16 µg/mL (≈ 38.1 µM); MIC (Enterobacter cloacae): 32 µg/mL (≈ 76.1 µM) |
| CCO/N=C1\CCN(c2c(F)cc3c(=O)c(C(=O)O)cn(C4CC4)c3c2F)CC1CN (racemic) | 0.25 (≈ 0.575 µM) | 0.5 (≈ 1.15 µM) | 1 (≈ 2.3 µM) | 0.25 (≈ 0.575 µM) | 2 (≈ 4.6 µM) | 0.25 (≈ 0.575 µM) | 2 (≈ 4.6 µM) | 2 (≈ 4.6 µM) | 32 (≈ 73.7 µM) | 1 (≈ 2.3 µM) | > 128 | 16 (≈ 36.8 µM) | 0.5 (≈ 1.15 µM) | 0.5 (≈ 1.15 µM) | 2 (≈ 4.6 µM) | 2 (≈ 4.6 µM) | 4 (≈ 9.21 µM) | 4 (≈ 9.21 µM) | 8 (≈ 18.4 µM) | 4 (≈ 9.21 µM) | MIC (Streptococcus pneumoniae [7]): 8 µg/mL (≈ 18.4 µM); MIC (Streptococcus pneumoniae [8]): 4 µg/mL (≈ 9.21 µM); MIC (Klebsiella pneumoniae): 32 µg/mL (≈ 73.7 µM); MIC (Enterobacter cloacae): > 128 µg/mL; CC50 at 24 h [14]: 257 µg/mL (≈ 591 µM) |
| CO/N=C1\CCN(c2c(F)cc3c(=O)c(C(=O)O)cn(C4CC4)c3c2OC(F)F)CC1CN (racemic) | 0.125 (≈ 0.267 µM) | 0.25 (≈ 0.534 µM) | 1 (≈ 2.13 µM) | 0.5 (≈ 1.07 µM) | 1 (≈ 2.13 µM) | 0.5 (≈ 1.07 µM) | 1 (≈ 2.13 µM) | 4 (≈ 8.54 µM) | 4 (≈ 8.54 µM) | 1 (≈ 2.13 µM) | > 128 | 8 (≈ 17.1 µM) | 16 (≈ 34.2 µM) | 0.5 (≈ 1.07 µM) | 2 (≈ 4.27 µM) | 2 (≈ 4.27 µM) | 8 (≈ 17.1 µM) | 4 (≈ 8.54 µM) | 4 (≈ 8.54 µM) | 4 (≈ 8.54 µM) | MIC (Streptococcus pneumoniae [7]): 4 µg/mL (≈ 8.54 µM); MIC (Streptococcus pneumoniae [8]): 2 µg/mL (≈ 4.27 µM); MIC (Klebsiella pneumoniae): 32 µg/mL (≈ 68.3 µM); MIC (Enterobacter cloacae): 2 µg/mL (≈ 4.27 µM); CC50 at 24 h [14]: 335 µg/mL (≈ 715 µM) |
| CCO/N=C1\CCN(c2c(F)cc3c(=O)c(C(=O)O)cn(C4CC4)c3c2OC(F)F)CC1CN (racemic) | 0.25 (≈ 0.518 µM) | 1 (≈ 2.07 µM) | 2 (≈ 4.15 µM) | 2 (≈ 4.15 µM) | 4 (≈ 8.29 µM) | 2 (≈ 4.15 µM) | 2 (≈ 4.15 µM) | 4 (≈ 8.29 µM) | 16 (≈ 33.2 µM) | 4 (≈ 8.29 µM) | > 128 | 16 (≈ 33.2 µM) | 2 (≈ 4.15 µM) | 2 (≈ 4.15 µM) | 4 (≈ 8.29 µM) | 8 (≈ 16.6 µM) | 32 (≈ 66.3 µM) | 8 (≈ 16.6 µM) | 16 (≈ 33.2 µM) | 8 (≈ 16.6 µM) | MIC (Streptococcus pneumoniae [7]): 8 µg/mL (≈ 16.6 µM); MIC (Streptococcus pneumoniae [8]): 4 µg/mL (≈ 8.29 µM); MIC (Klebsiella pneumoniae): 64 µg/mL (≈ 133 µM); MIC (Enterobacter cloacae): 8 µg/mL (≈ 16.6 µM); CC50 at 24 h [14]: 203 µg/mL (≈ 421 µM) |
| CCn1cc(C(=O)O)c(=O)c2cc(F)c(N3CC/C(=N\OC)C(CN)C3)c(F)c21 (racemic) | 4 (≈ 9.79 µM) | 2 (≈ 4.9 µM) | 8 (≈ 19.6 µM) | 8 (≈ 19.6 µM) | 16 (≈ 39.2 µM) | 4 (≈ 9.79 µM) | 8 (≈ 19.6 µM) | 32 (≈ 78.4 µM) | 64 (≈ 157 µM) | 4 (≈ 9.79 µM) | > 128 | 32 (≈ 78.4 µM) | 4 (≈ 9.79 µM) | 4 (≈ 9.79 µM) | 16 (≈ 39.2 µM) | 8 (≈ 19.6 µM) | 8 (≈ 19.6 µM) | 4 (≈ 9.79 µM) | 8 (≈ 19.6 µM) | 8 (≈ 19.6 µM) | MIC (Streptococcus pneumoniae [7]): 32 µg/mL (≈ 78.4 µM); MIC (Streptococcus pneumoniae [8]): 16 µg/mL (≈ 39.2 µM); MIC (Klebsiella pneumoniae): 128 µg/mL (≈ 313 µM); MIC (Enterobacter cloacae): > 128 µg/mL; CC50 at 24 h [14]: > 500 µg/mL |
| CCO/N=C1\CCN(c2c(F)cc3c(=O)c(C(=O)O)cn(CC)c3c2F)CC1CN (racemic) | 4 (≈ 9.47 µM) | 4 (≈ 9.47 µM) | 8 (≈ 18.9 µM) | 8 (≈ 18.9 µM) | 32 (≈ 75.8 µM) | 8 (≈ 18.9 µM) | 16 (≈ 37.9 µM) | 32 (≈ 75.8 µM) | 64 (≈ 152 µM) | 8 (≈ 18.9 µM) | > 128 | 128 (≈ 303 µM) | 128 (≈ 303 µM) | 8 (≈ 18.9 µM) | 128 (≈ 303 µM) | 16 (≈ 37.9 µM) | 16 (≈ 37.9 µM) | 16 (≈ 37.9 µM) | 32 (≈ 75.8 µM) | 16 (≈ 37.9 µM) | MIC (Streptococcus pneumoniae [7]): 64 µg/mL (≈ 152 µM); MIC (Streptococcus pneumoniae [8]): 32 µg/mL (≈ 75.8 µM); MIC (Klebsiella pneumoniae): > 128 µg/mL; MIC (Enterobacter cloacae): > 128 µg/mL; CC50 at 24 h [14]: 410 µg/mL (≈ 969 µM) |
| CO/N=C1\CCN(c2c(F)cc3c(=O)c(C(=O)O)cn(CCF)c3c2F)CC1CN (racemic) | 2 (≈ 4.69 µM) | 4 (≈ 9.38 µM) | 8 (≈ 18.8 µM) | 8 (≈ 18.8 µM) | 32 (≈ 75 µM) | 8 (≈ 18.8 µM) | 8 (≈ 18.8 µM) | 16 (≈ 37.5 µM) | 32 (≈ 75 µM) | 8 (≈ 18.8 µM) | > 128 | 32 (≈ 75 µM) | 32 (≈ 75 µM) | 8 (≈ 18.8 µM) | 128 (≈ 300 µM) | 32 (≈ 75 µM) | 16 (≈ 37.5 µM) | 16 (≈ 37.5 µM) | 16 (≈ 37.5 µM) | 16 (≈ 37.5 µM) | MIC (Streptococcus pneumoniae [7]): 32 µg/mL (≈ 75 µM); MIC (Streptococcus pneumoniae [8]): 16 µg/mL (≈ 37.5 µM); MIC (Klebsiella pneumoniae): 128 µg/mL (≈ 300 µM); MIC (Enterobacter cloacae): > 128 µg/mL |
| O=C(O)c1cn(C2CC2)c2cc(N3CCNCC3)c(F)cc2c1=O [CIPROFLOXACIN] | 0.25 (≈ 0.754 µM) |  | 4 (≈ 12.1 µM) | 0.25 (≈ 0.754 µM) | 2 (≈ 6.04 µM) | 0.25 (≈ 0.754 µM) | 0.5 (≈ 1.51 µM) | 1 (≈ 3.02 µM) | 1 (≈ 3.02 µM) | ≤ 0.03 | 128 (≈ 386 µM) | 16 (≈ 48.3 µM) | ≤ 0.03 | ≤ 0.03 | 1 (≈ 3.02 µM) | ≤ 0.03 | 0.25 (≈ 0.754 µM) | ≤ 0.03 | ≤ 0.03 | ≤ 0.03 | MIC (Streptococcus pneumoniae [7]): 1 µg/mL (≈ 3.02 µM); MIC (Streptococcus pneumoniae [8]): 1 µg/mL (≈ 3.02 µM); MIC (Klebsiella pneumoniae): 0.5 µg/mL (≈ 1.51 µM) |
| CO/N=C1\CN(c2nc3c(cc2F)c(=O)c(C(=O)O)cn3C2CC2)CC1CN (stereo not given) [GEMIFLOXACIN] | ≤ 0.03 | ≤ 0.03 | 0.5 (≈ 1.28 µM) | 0.06 (≈ 0.154 µM) | 0.06 (≈ 0.154 µM) | ≤ 0.03 | 0.06 (≈ 0.154 µM) | 0.5 (≈ 1.28 µM) | 0.125 (≈ 0.321 µM) | ≤ 0.03 | 32 (≈ 82.2 µM) | 32 (≈ 82.2 µM) | ≤ 0.03 | ≤ 0.03 | 0.125 (≈ 0.321 µM) | ≤ 0.03 | 0.125 (≈ 0.321 µM) | 0.06 (≈ 0.154 µM) | 0.06 (≈ 0.154 µM) | ≤ 0.03 | MIC (Streptococcus pneumoniae [7]): 0.5 µg/mL (≈ 1.28 µM); MIC (Streptococcus pneumoniae [8]): ≤ 0.03 µg/mL; MIC (Klebsiella pneumoniae): 0.5 µg/mL (≈ 1.28 µM); MIC (Enterobacter cloacae): ≤ 0.03 µg/mL |
| C[C@H]1COc2c(N3CCN(C)CC3)c(F)cc3c(=O)c(C(=O)O)cn1c23.C[C@H]1COc2c(N3CCN(C)CC3)c(F)cc3c(=O)c(C(=O)O)cn1c23.O [LEVOFLOXACIN] | 0.06 | 0.06 | 1 | 0.125 | 1 | 0.125 | 0.25 | 2 | 1 | ≤ 0.03 | 32 | 8 | ≤ 0.03 | ≤ 0.03 | 0.25 | ≤ 0.03 | 0.25 | ≤ 0.03 | 0.25 | ≤ 0.03 | MIC (Enterobacter cloacae): 0.06 µg/mL |
